Measured values from ChEMBL document CHEMBL1909046, “DrugMatrix in vitro pharmacology data”.

Key:
[1] = molecular target: T1, Cytochrome P450 2A6 (Homo sapiens, UniProt P11509); conditions: bti-tn-5b1-4; also: in other assays of this panel Not Active means under 50% inhibition at 10 µM
T1 sequence (P11509 whole entry): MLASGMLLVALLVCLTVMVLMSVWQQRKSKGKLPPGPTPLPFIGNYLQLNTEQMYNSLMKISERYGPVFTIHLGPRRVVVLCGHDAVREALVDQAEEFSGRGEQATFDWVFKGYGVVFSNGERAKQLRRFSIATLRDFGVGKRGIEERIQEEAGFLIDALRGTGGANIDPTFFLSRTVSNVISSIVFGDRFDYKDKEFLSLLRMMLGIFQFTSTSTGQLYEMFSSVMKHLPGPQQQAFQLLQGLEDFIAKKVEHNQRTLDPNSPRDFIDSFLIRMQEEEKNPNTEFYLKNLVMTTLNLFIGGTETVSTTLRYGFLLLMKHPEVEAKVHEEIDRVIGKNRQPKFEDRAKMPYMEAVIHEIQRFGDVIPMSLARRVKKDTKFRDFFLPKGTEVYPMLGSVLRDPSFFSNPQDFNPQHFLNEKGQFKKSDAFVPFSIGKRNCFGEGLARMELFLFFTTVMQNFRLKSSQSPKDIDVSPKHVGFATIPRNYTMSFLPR

[2] = molecular target: T2, Alpha-1B adrenergic receptor (Rattus norvegicus, UniProt P15823); test: DRUGMATRIX: Alpha-1B adrenergic receptor radioligand binding (ligand: prazosin); type: cell membranes, Wistar, Liver, Membrane; conditions: Not Active = under 50% inhibition at 10 µM
T2 sequence (P15823 whole entry): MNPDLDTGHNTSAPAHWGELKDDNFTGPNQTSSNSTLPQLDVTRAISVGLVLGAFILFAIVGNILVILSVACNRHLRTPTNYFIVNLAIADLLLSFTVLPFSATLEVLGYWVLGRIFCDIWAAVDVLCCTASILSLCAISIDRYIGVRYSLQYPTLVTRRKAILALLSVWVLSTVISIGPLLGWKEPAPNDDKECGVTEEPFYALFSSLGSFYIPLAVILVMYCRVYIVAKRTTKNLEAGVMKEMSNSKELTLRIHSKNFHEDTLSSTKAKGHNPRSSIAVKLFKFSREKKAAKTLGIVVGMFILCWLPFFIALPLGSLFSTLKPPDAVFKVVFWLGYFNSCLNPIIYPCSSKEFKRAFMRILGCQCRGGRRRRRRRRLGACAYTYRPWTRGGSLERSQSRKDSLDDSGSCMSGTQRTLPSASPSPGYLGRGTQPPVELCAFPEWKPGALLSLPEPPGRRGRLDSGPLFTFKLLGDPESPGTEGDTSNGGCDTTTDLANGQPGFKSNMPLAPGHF

[3] = molecular target: T3, Thromboxane-A synthase (Homo sapiens, UniProt P24557); test: biochemical; type: tissue-based, Platelet; conditions: platelet;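 also: enzyme inhibition assay with PGH2 supplied as substrate; in other assays of this panel Not Active means under 50% inhibition at 10 µM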
T3 sequence (P24557 whole entry): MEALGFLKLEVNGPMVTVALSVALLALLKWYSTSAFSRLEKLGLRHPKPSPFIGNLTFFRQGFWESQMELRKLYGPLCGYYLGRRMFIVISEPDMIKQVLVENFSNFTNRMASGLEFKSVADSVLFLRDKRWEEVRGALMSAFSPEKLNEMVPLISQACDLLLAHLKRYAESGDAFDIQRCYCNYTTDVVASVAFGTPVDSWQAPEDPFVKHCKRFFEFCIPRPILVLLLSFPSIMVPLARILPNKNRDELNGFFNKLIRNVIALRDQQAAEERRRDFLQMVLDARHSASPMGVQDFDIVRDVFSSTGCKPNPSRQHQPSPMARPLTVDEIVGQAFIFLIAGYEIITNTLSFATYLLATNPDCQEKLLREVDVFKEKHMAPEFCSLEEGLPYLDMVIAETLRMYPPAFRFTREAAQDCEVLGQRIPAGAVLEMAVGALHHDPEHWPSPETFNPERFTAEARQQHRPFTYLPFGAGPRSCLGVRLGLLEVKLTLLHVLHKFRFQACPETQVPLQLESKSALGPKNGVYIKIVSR

[4] = molecular target: T4, Angiotensin-converting enzyme (Oryctolagus cuniculus, UniProt P12822); type: tissue-based, Lung;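 also: enzymatic inhibition of angiotensin-converting enzyme measured with FAPGG as the substrate; in other assays of this panel Not Active means under 50% inhibition at 10 µM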
T4 sequence (P12822 whole entry): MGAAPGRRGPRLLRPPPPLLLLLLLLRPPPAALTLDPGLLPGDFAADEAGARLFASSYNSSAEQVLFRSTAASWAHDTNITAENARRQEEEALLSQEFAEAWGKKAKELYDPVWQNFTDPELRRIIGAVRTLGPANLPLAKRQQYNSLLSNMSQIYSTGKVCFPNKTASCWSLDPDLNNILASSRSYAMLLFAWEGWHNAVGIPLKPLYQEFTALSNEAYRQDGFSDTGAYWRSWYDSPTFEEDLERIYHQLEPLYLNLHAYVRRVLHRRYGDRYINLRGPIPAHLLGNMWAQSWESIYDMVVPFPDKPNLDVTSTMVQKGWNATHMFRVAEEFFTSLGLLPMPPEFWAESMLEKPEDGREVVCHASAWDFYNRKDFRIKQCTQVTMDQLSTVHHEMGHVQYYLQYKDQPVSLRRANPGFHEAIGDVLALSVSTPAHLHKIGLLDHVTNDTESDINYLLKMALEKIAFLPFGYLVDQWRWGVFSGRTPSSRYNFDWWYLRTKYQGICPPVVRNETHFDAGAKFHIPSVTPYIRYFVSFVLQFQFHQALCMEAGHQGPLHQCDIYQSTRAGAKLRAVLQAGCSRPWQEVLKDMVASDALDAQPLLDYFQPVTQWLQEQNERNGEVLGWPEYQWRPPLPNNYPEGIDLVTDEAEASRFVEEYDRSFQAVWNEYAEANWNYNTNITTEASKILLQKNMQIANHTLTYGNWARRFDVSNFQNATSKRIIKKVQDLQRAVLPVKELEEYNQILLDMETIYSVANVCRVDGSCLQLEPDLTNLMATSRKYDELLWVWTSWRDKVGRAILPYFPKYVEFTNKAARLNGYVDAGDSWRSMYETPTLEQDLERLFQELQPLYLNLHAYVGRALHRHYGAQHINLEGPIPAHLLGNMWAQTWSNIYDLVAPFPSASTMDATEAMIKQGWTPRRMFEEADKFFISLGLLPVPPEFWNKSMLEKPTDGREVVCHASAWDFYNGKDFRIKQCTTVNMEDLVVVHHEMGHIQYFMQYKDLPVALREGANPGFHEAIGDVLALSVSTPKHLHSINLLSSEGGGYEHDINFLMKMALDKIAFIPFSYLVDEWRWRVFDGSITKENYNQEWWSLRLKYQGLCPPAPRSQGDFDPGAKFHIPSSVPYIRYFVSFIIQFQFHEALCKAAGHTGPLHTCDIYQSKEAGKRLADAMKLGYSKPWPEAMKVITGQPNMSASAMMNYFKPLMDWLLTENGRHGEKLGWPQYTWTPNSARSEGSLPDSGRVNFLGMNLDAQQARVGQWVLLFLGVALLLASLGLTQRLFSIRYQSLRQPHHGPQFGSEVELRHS

[5] = molecular target: D(3) dopamine receptor (Homo sapiens, UniProt P35462); test: DRUGMATRIX: Dopamine D3 radioligand binding (ligand: [3H] Spiperone); type: cell membranes, CHO, Membrane
D(3) dopamine receptor, sequence (P35462 whole entry): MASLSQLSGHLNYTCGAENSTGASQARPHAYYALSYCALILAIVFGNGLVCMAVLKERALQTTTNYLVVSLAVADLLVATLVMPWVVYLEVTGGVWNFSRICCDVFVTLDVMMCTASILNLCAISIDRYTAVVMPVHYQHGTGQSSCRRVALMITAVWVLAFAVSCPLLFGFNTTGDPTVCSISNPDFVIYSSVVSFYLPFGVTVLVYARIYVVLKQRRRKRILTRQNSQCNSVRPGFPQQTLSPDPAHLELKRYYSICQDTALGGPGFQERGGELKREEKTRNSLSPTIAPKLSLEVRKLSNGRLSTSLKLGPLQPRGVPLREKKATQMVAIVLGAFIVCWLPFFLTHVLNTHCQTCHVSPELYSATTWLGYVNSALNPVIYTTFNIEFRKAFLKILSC

SMILES	IC50 [1]	Ki [1]	IC50 [2]	IC50 [3]	IC50 [4]	IC50 ([5]; cho)	Ki [5] [nM]	IC50 ([5]; read-out: IC50) [nM]
Nc1c(CC(=O)O)cccc1C(=O)c1ccc(Br)cc1 [BROMFENAC]	Not Active	Not Active	Not Active	Not Active	Not Active	Not Active		
CCCCN1CCCCC1C(=O)Nc1c(C)cccc1C.Cl (stereo not drawn) [BUPIVACAINE HYDROCHLORIDE]	Not Active	Not Active	Not Active	Not Active	Not Active	Not Active		
O=C1CC2(CCCC2)CC(=O)N1CCCCN1CCN(c2ncccn2)CC1 [BUSPIRONE]	Not Active	Not Active	Not Active	Not Active	Not Active		15	44
C[C@@]12C(=O)OC(=O)[C@]1(C)[C@H]1CC[C@@H]2O1 [CANTHARIDIN]	Not Active	Not Active	Not Active	Not Active	Not Active	Not Active		
CC1=C(C(=O)O)N2C(=O)[C@@H](NC(=O)[C@H](N)c3ccccc3)[C@H]2SC1 [CEPHALEXIN ANHYDROUS]	Not Active	Not Active	Not Active	Not Active	Not Active	Not Active		
ClC(Cl)Cl [CHLOROFORM]	Not Active	Not Active	Not Active	Not Active	Not Active	Not Active		
C=C1CC[C@H](O)C/C1=C/C=C1\CCC[C@]2(C)[C@@H]([C@H](C)CCCC(C)C)CC[C@@H]12 [CHOLECALCIFEROL]	Not Active	Not Active	Not Active	Not Active	Not Active	Not Active		
C[N+](C)(C)CCO.[Cl-] [CHOLINE CHLORIDE]	Not Active	Not Active	Not Active	Not Active	Not Active	Not Active		
CCOC(=O)C(C)(C)Oc1ccc(Cl)cc1 [CLOFIBRATE]	Not Active	Not Active	Not Active	Not Active	Not Active	Not Active		
CC(=O)OCC(=O)[C@@]1(O)CC[C@H]2[C@@H]3CCC4=CC(=O)CC[C@]4(C)[C@H]3C(=O)C[C@@]21C [CORTISONE ACETATE]	Not Active	Not Active	Not Active	Not Active	Not Active	Not Active		
O=c1ccc2ccccc2o1 [COUMARIN]	Not Active	Not Active	Not Active	Not Active	Not Active	Not Active		
CN(C)/N=N/c1[nH]cnc1C(N)=O [DACARBAZINE]	Not Active	Not Active	Not Active	Not Active	Not Active	Not Active		
COc1ccc2c(c1)[C@]13CCCC[C@@H]1[C@H](C2)N(C)CC3 [DEXTROMETHORPHAN]	Not Active	Not Active	Not Active	Not Active	Not Active	Not Active		
CC(=O)Nc1c(I)c(NC(C)=O)c(I)c(C(=O)O)c1I [DIATRIZOIC ACID]	Not Active	Not Active	Not Active	Not Active	Not Active	Not Active		
COP(=O)(OC)OC=C(Cl)Cl [DICHLORVOS]	Not Active	Not Active	Not Active	Not Active	Not Active	Not Active		
O=C(O)Cc1ccccc1Nc1c(Cl)cccc1Cl [DICLOFENAC]	Not Active	Not Active	Not Active	Not Active	Not Active	Not Active		
C[C@H]1O[C@@H](O[C@H]2[C@@H](O)C[C@H](O[C@H]3[C@@H](O)C[C@H](O[C@H]4CC[C@@]5(C)[C@H](CC[C@@H]6[C@@H]5CC[C@]5(C)[C@@H](C7=CC(=O)OC7)CC[C@]65O)C4)O[C@@H]3C)O[C@@H]2C)C[C@H](O)[C@@H]1O [DIGITOXIN]	Not Active	Not Active	Not Active	Not Active	Not Active	Not Active		
CCN1CC(CCN2CCOCC2)C(c2ccccc2)(c2ccccc2)C1=O (stereo not drawn) [DOXAPRAM]	Not Active	Not Active	Not Active	Not Active	Not Active	Not Active		
Cn1c(=O)c2c(ncn2CC2OCCO2)n(C)c1=O [DOXOFYLLINE]	Not Active	Not Active	Not Active	Not Active	Not Active	Not Active		
COc1cccc2c1C(=O)c1c(O)c3c(c(O)c1C2=O)C[C@@](O)(C(=O)CO)C[C@@H]3O[C@H]1C[C@H](N)[C@H](O)[C@H](C)O1 [DOXORUBICIN]	Not Active	Not Active	Not Active	Not Active	Not Active	Not Active		
COc1cccc2c1C(=O)c1c(O)c3c(c(O)c1C2=O)C[C@@](O)(C(=O)CO)C[C@@H]3O[C@H]1C[C@H](N)[C@@H](O)[C@H](C)O1 [EPIRUBICIN]	Not Active	Not Active	Not Active	Not Active	Not Active	Not Active		
C[C@]12CC[C@@H]3c4ccc(OC(=O)c5ccccc5)cc4CC[C@H]3[C@@H]1CC[C@@H]2O [ESTRADIOL BENZOATE]	Not Active	Not Active	Not Active	Not Active	Not Active	Not Active		
